Measurements as given in publication PMC7725003, “Systematically Studying the Optimal Amino Acid Distribution Patterns of the Amphiphilic Structure by Using the Ultrashort Amphiphiles” (Frontiers in Microbiology, 2020).
Where no end group is shown, it is not given here.

How the values were obtained:
MRSA 43300 = assay type: cell-based, methicillin-resistant S. aureus; settings: 43300, 24 h
How it was run: (§1)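 Absorbance at 492 nm after 24 h at 37°C defined the MIC as the lowest peptide level inhibiting 95% of growth. Inoculum was 0.5–1 × 10^6 CFU mL^–1 mid-log cells in MHB; peptides were diluted in 0.2% BSA.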

E. coli 25922 = assay type: cell-based, Escherichia coli; settings: 25922, 24 h
How it was run: as §1

E. coli O78 = assay type: cell-based, Escherichia coli; settings: O78, 24 h
How it was run: as §1

E. coli UB1005 = assay type: cell-based, Escherichia coli; settings: UB1005, 24 h
How it was run: as §1

Gram-negative bacteria [1] = settings: geometric mean of MBCs, 9 Gram-negative strains (Table 2)
[2] = system: all of the tested bacterial strains; test: Geometric mean of MICs, all tested bacterial strains; assay type: cell-based
How it was run: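 Mid-log bacteria at 0.5–1 × 10^6 CFU mL^–1 in MHB with peptides serially diluted in 0.2% BSA, 24 h at 37°C. MIC is the lowest concentration giving 95% growth inhibition by A492. MBC is the lowest giving >99.9% kill on agar subculture, and the GM is taken over all strains.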

Gram-negative bacteria [3] = system: Gram-negative bacteria
How it was run: (§2)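 Broth microdilution adapted from NCCLS: mid-log bacteria diluted in MHB to 0.5–1 × 10^6 CFU mL^–1, mixed with peptides serially diluted in 0.2% BSA. After 24 h at 37°C, MIC taken as the lowest concentration inhibiting 95% of growth by absorbance at 492 nm. Assays repeated more than 3 times.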

Gram-positive bacteria [4] = system: Gram-positive bacteria
How it was run: as §2

B. subtilis 63501 = assay type: cell-based, Bacillus subtilis; settings: 63501, 24 h
How it was run: as §1

S. pullorum 7913 = assay type: cell-based, Salmonella pullorum; settings: 7913, 24 h
How it was run: as §1

S. aureus 29213 [5] = assay type: cell-based, Staphylococcus aureus; settings: 29213, 24 h
How it was run: as §1

S. aureus 25923 = assay type: cell-based, Staphylococcus aureus; settings: 25923, 24 h
How it was run: as §1

E. faecalis 29212 = assay type: cell-based, Enterococcus faecalis; settings: 29212, 24 h
How it was run: as §1

[6] = system: Listeria monocytogenes CGMCC 1.1075; assay type: cell-based; settings: CGMCC 1.1075, 24 h
How it was run: as §1

S. epidermidis 12228 = assay type: cell-based, Staphylococcus epidermidis; settings: 12228, 24 h
How it was run: as §1

P. aeruginosa 27853 = assay type: cell-based, Pseudomonas aeruginosa; settings: 27853, 24 h
How it was run: as §1

E. coli K99 = system: E. coli K99
How it was run: (§3)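 Peptides were serially diluted in 0.2% BSA and added to mid-logarithmic cells diluted in MHB to 0.5–1 × 10^6 CFU mL^–1. Assays followed an adapted NCCLS protocol.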

E. coli K88 = system: E. coli K88
How it was run: as §3

S. typhimurium 7731 = assay type: cell-based, Salmonella typhimurium; settings: 7731, 24 h
How it was run: as §1

S. typhimurium 14028 = assay type: cell-based, Salmonella typhimurium; settings: 14028, 24 h
How it was run: as §1

Gram-positive bacteria [7] = settings: geometric mean of MBCs, 7 Gram-positive strains (Table 2)
S. aureus 29213 [8] = test: Salt sensitivity assay (MIC); assay type: cell-based, Staphylococcus aureus
How it was run: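 MICs determined by broth microdilution in MHB with 0.5–1 × 10^6 CFU/mL, peptides serially diluted in 0.2% BSA, 24 h at 37°C. Medium supplemented with physiological salts (150 mM NaCl, 4.5 mM KCl, 6 μM NH4Cl, 8 μM ZnCl2, 1 mM MgCl2, 2mM CaCl2, 4 μM FeCl3). MIC = lowest concentration inhibiting 95% growth (A492).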

E. coli ATCC 25922 = test: Salt sensitivity assay (MIC); assay type: cell-based, Escherichia coli
How it was run: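 The salt sensitivity of peptides was tested against E. coli ATCC 25922 using a modified NCCLS broth microdilution MIC method. Mid-log bacteria were diluted in MHB to 0.5–1 × 10^6 CFU mL^–1 and mixed in equal volumes with peptides serially diluted in 0.2% BSA in 96-well plates. Physiological salt was added where specified, and the assay was done three independent times.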

[9] = therapeutic index TI = MHC/GM MIC
[10] = MHB, 24 h 37°C, 95% growth inhibition
[11] = value in brackets, >99.9% of cells killed
[12] = no added salt, three independent assays

RRLLLLRRL-NH2 [L7]
MIC (MRSA 43300): >64 µM | MIC (E. coli 25922): > 64 µM | MBC (E. coli O78): 128 µM | MIC (E. coli O78): 64 µM | MIC (E. coli UB1005): >64 µM | GM MBC (Gram-negative bacteria [1]): 118.51 µM | GM, All ([2]; geometric mean of MICs across all tested strains): 79.48 µM | TI, All [2, 9]: 3.22 | GM MIC (Gram-negative bacteria [3]; geometric mean of MICs, 9 Gram-negative strains (Table 2)): 94.06 µM | TI, Gram-negative bacteria (Gram-negative bacteria [3]; [9]): 2.72 | GM MIC (Gram-positive bacteria [4]; geometric mean of MICs, 7 Gram-positive strains (Table 2)): 64.00 µM | TI, Gram-positive bacteria (Gram-positive bacteria [4]; [9]): 4.00 | MBC (B. subtilis 63501): 16 µM | MIC (B. subtilis 63501): 8 µM | MIC (S. pullorum 7913): >64 µM | MIC (S. aureus 29213 [5]): >64 µM | MIC (S. aureus 25923): > 64 µM | MIC (E. faecalis 29212): > 64 µM | MBC [6]: 32 µM | MIC [6]: 16 µM | MIC (S. epidermidis 12228): > 64 µM | MIC (P. aeruginosa 27853): > 64 µM | MIC (E. coli K99; [10]): 64 µM | MBC (E. coli K99; [11]): 128 µM | MIC (E. coli K88; [10]): 32 µM | MBC (E. coli K88; [11]): 64 µM | MIC (S. typhimurium 7731): > 64 µM | MIC (S. typhimurium 14028): > 64 µM | GM MBC (Gram-positive bacteria [7]): 78.02 µM | MIC, FeCl3 (S. aureus 29213 [8]; 4 μM FeCl3): > 64 µM | MIC, NH4Cl (S. aureus 29213 [8]; 6 μM NH4Cl): > 64 µM | MIC, ZnCl2 (S. aureus 29213 [8]; 8 μM ZnCl2): > 64 µM | MIC, MgCl2 (S. aureus 29213 [8]; 1 mM MgCl2): > 64 µM | MIC, CaCl2 (S. aureus 29213 [8]; 2 mM CaCl2): > 64 µM | MIC, KCl (S. aureus 29213 [8]; 4.5 mM KCl): > 64 µM | MIC, NaCl (S. aureus 29213 [8]; 150 mM NaCl): > 64 µM | MIC, Control (S. aureus 29213 [8]; [12]): > 64 µM | MIC, FeCl3 (E. coli ATCC 25922; 4 μM FeCl3): > 64 µM | MIC, NH4Cl (E. coli ATCC 25922; 6 μM NH4Cl): > 64 µM | MIC, ZnCl2 (E. coli ATCC 25922; 8 μM ZnCl2): > 64 µM | MIC, MgCl2 (E. coli ATCC 25922; 1 mM MgCl2): > 64 µM | MIC, CaCl2 (E. coli ATCC 25922; 2 mM CaCl2): > 64 µM | MIC, KCl (E. coli ATCC 25922; 4.5 mM KCl): > 64 µM | MIC, NaCl (E. coli ATCC 25922; 150 mM NaCl): > 64 µM | MIC, Control (E. coli ATCC 25922; [12]): > 64 µM
